Read-outs that look alike come from different tables or passages of the source.
Columns and labels:
[1] = Long-term/accelerated stability; type: physicochemical
[2] = DVS (dynamic vapor sorption) hygroscopicity test; type: physicochemical
Procedure: DVS refers to dynamic vapor sorption and is determined using SMS DVS Advantage at 25°C, with the humidity change of 50%-95%-0%-95%-50% and the stepping of 10% (5% for the last step) (the specific humidity range is determined in accordance with the corresponding plot, and the methods listed herein are those most commonly used), and the standard for determination is as follow: dm/dt is not more than 0.002%.
100 mg of the compound of formula 1 was dissolved in 1 mL of acetone to give a clear solution. An aqueous p-toluenesulfonic acid solution (97.10 µL, 2 M) was added to the resulting solution. The mixture was stirred and centrifuged. The resulting solid was collected and dried under vacuum to obtain a product. […] The p-toluenesulfonate ion content of the product was detected to be 22.63% by ion chromatography. […] Furthermore, the crystal form was re-detected and found to be unchanged following the DVS test.

[3] = Stability study under influencing factors; type: physicochemical
From the text: The sampling and investigation period was 1 month.

[4] = test system: EGFR wild-type Ba/F3 cells; assay: Ba/F3 cell proliferation assay (EGFR wild-type); type: cell-based; details: 72 hours, Celltiter-Glo
Procedure: (§1) EGFR wild-type Ba/F3 cells in the logarithmic growth phase (Cobioer, Cat. No.: CBP73110) were seeded into 96-well plates at a density of 2.5 × 10^3 cells/100 uL of growth culture medium. HER2 wild-type Ba/F3 cells (Cobioer, Cat. No.: CBP73110) or HER2 A775_G776insYVMA mutant Ba/F3 cells (Cobioer, Cat. No.: CBP73184) in the logarithmic growth phase were seeded into 96-well plates at a density of 5 × 10^3 cells/100 uL of growth culture medium. The plates were incubated overnight in a 37°C cell incubator. The following day, the compound, which had been serially diluted 3-fold in growth culture medium, was added at 100 uL/well. All treatments were performed in triplicate. The plates were incubated in the 37°C cell incubator for another 72 hours. Celltiter-Glo Luminescent Cell Viability Assay was performed.
(§2) The cell proliferation rate was calculated for each well according to the following formula: Proliferation (%) = (G3 - G0 mean value of test compound wells)/(G3 mean value - GO mean value of DMSO control wells)*100. Based on the proliferation rate corresponding to each gradient concentration well and concentration thereof, the gradient curve of cell proliferation was fitted using Prism Graphpad software, and the GI50 of the compound was calculated (GI50 is defined as the compound concentration required to achieve a 50% inhibition rate of cell proliferation).

[5] = test system: HER2 wild-type Ba/F3 cells; assay: Ba/F3 cell proliferation assay (HER2 wild-type); type: cell-based; details: 72 hours, Celltiter-Glo
Procedure: as §1, §2

[6] = test system: HER2 A775_G776insYVMA mutant Ba/F3 cells; assay: Ba/F3 cell proliferation assay (HER2 exon 20 YVMA insertion mutant); type: cell-based; details: 72 hours, Celltiter-Glo; for GI50: read-out: HER2 A775_G776 ins YVMA/BaF 3 GI50
Procedure: as §1, §2

[7] = 75% RH, 1 month, open container
[8] = 75% RH, 13 days, open container
[9] = 92.5% RH, 1 month, open container
[10] = 92.5% RH, 13 days, open container
[11] = 4500 Lux, 1 month, open container
[12] = 4500 Lux, 7 days, open container
[13] = 4500 Lux, 13 days, open container

In the case of `C=CC(=O)N1[C@@H]2CC[C@H]1C[C@@H](Oc1ccc3ncnc(Nc4ccc(Oc5ccn6ncnc6c5)c(C)c4F)c3c1)C2` [Crystal form I of p-toluenesulfonate, 1-(endo-3-((4-((4-([1,2,4]triazolo[1,5-a]pyridin-7-yloxy)-2-fluoro-3-methylphenyl)amino)quinazolin-6-yl)oxy)-8-azabicyclo[3.2.1]oct-8-yl)prop-2-en-1-one], the Colour and trait ([1]; 25°C/60% RH, 1 month) is reported as “White powder”, the Purity% ([1]; 25°C/60% RH, 1 month) is reported as 99.7% and the Salt form ([1]; 25°C/60% RH, 1 month) is reported as “Unchanged”. The Colour and trait ([1]; 25°C/60% RH, 2 months) was “White powder”, the Purity% ([1]; 25°C/60% RH, 2 months) was 99.7% and the Salt form ([1]; 25°C/60% RH, 2 months) was “Unchanged”. For the same compound, the Colour and trait ([1]; 25°C/60% RH, 3 months) was “White powder”, the Purity% ([1]; 25°C/60% RH, 3 months) was 99.7% and the Salt form ([1]; 25°C/60% RH, 3 months) was “Unchanged”. For the same compound, the Colour and trait ([1]; 25°C/60% RH, 6 months) was “White powder”, the Purity% ([1]; 25°C/60% RH, 6 months) was 99.7% and the Salt form ([1]; 25°C/60% RH, 6 months) was “Unchanged”. For the same compound, the Colour and trait ([1]; 25°C/60% RH, 14 days) was “White powder”, the Purity% ([1]; 25°C/60% RH, 14 days) was 99.7% and the Salt form ([1]; 25°C/60% RH, 14 days) was “Unchanged”. For the same compound, the Colour and trait ([1]; 40°C/75% RH, 1 month) was “White powder”, the Purity% ([1]; 40°C/75% RH, 1 month) was 99.7% and the Salt form ([1]; 40°C/75% RH, 1 month) was “Unchanged”. The Colour and trait ([1]; 40°C/75% RH, 2 months) was “White powder”, the Purity% ([1]; 40°C/75% RH, 2 months) was 99.7% and the Salt form ([1]; 40°C/75% RH, 2 months) was “Unchanged”. The Colour and trait ([1]; 40°C/75% RH, 3 months) was “White powder”, the Purity% ([1]; 40°C/75% RH, 3 months) was 99.7% and the Salt form ([1]; 40°C/75% RH, 3 months) was “Unchanged”. For the same compound, the Colour and trait ([1]; 40°C/75% RH, 6 months) was “White powder”, the Purity% ([1]; 40°C/75% RH, 6 months) was 99.7% and the Salt form ([1]; 40°C/75% RH, 6 months) was “Unchanged”. For the same compound, the Colour and trait ([1]; 40°C/75% RH, 14 days) was “White powder”, the Purity% ([1]; 40°C/75% RH, 14 days) was 99.6% and the Salt form ([1]; 40°C/75% RH, 14 days) was “Unchanged”. For the same compound, the Colour and trait ([1]; Initial, 0 day) was “White powder”, the Purity% ([1]; Initial, 0 day) was 99.7% and the Salt form ([1]; Initial, 0 day) was “Crystal form I of p-toluenesulfonate”. For the same compound, the “weight gain after moisture absorption” value ([2]; accelerated test conditions (70% RH)) was “about 1.57%”, the “crystal form re-detected following the DVS test” value ([2]; after DVS test) was “unchanged” and the “weight gain after moisture absorption” value ([2]; extreme conditions (90% RH)) was “about 2.21%”. The “weight gain after moisture absorption” value ([2]; normal storage conditions (25°C, 60% RH)) was “about 1.18%”, the Colour and trait ([3]; 40°C, 1 month, open container) was “White powder” and the Purity% ([3]; 40°C, 1 month, open container) was 95.2%. The Salt form ([3]; 40°C, 1 month, open container) was “Unchanged”, the Colour and trait ([3]; 40°C, 7 days, open container) was “White powder” and the Purity% ([3]; 40°C, 7 days, open container) was 98.7%. The Salt form ([3]; 40°C, 7 days, open container) was “Unchanged”, the Colour and trait ([3]; 40°C, 13 days, open container) was “White powder” and the Purity% ([3]; 40°C, 13 days, open container) was 97.6%. For the same compound, the Salt form ([3]; 40°C, 13 days, open container) was “Unchanged”, the Colour and trait ([3]; 60°C, 1 month, open container) was “White powder” and the Purity% ([3]; 60°C, 1 month, open container) was 94.9%. The Salt form ([3]; 60°C, 1 month, open container) was “Unchanged”, the Colour and trait ([3]; 60°C, 7 days, open container) was “White powder” and the Purity% ([3]; 60°C, 7 days, open container) was 98.7%. The Salt form ([3]; 60°C, 7 days, open container) was “Unchanged”, the Colour and trait ([3]; 60°C, 13 days, open container) was “White powder” and the Purity% ([3]; 60°C, 13 days, open container) was 97.8%. For the same compound, the Salt form ([3]; 60°C, 13 days, open container) was “Unchanged”, the Colour and trait [3, 7] was “White powder” and the Purity% [3, 7] was 99.7%. The Salt form [3, 7] was “Unchanged”, the Colour and trait [3, 8] was “White powder” and the Purity% [3, 8] was 99.7%. For the same compound, the Salt form [3, 8] was “Unchanged”, the Colour and trait [3, 9] was “White powder” and the Purity% [3, 9] was 99.7%. The Salt form [3, 9] was “Unchanged”, the Colour and trait [3, 10] was “White powder” and the Purity% [3, 10] was 99.7%. For the same compound, the Salt form [3, 10] was “Unchanged”, the Colour and trait [3, 11] was “White powder” and the Purity% [3, 11] was 99.1%. The Salt form [3, 11] was “Unchanged”, the Colour and trait [3, 12] was “White powder” and the Purity% [3, 12] was 99.6%. For the same compound, the Salt form [3, 12] was “Unchanged”, the Colour and trait [3, 13] was “White powder” and the Purity% [3, 13] was 99.5%. For the same compound, the Salt form [3, 13] was “Unchanged”, the Colour and trait ([3]; Initial, 0 day) was “White powder” and the Purity% ([3]; Initial, 0 day) was 99.7%. For the same compound, the Salt form ([3]; Initial, 0 day) was “Crystal form I of p-toluenesulfonate”.

With `C=CC(=O)N1[C@@H]2CC[C@H]1C[C@@H](Oc1ccc3ncnc(Nc4ccc(Oc5ccn6ncnc6c5)c(C)c4F)c3c1)C2` [Example 1, 1-(endo-3-((4-((4-([1,2,4]triazolo[1,5-a]pyridin-7-yloxy)-2-fluoro-3-methylphenyl)amino)quinazolin-6-yl)oxy)-8-azabicyclo[3.2.1]oct-8-yl)prop-2-en-1-one] the “EGFR WT/BaF 3 Imax %” value [4] was 100%, the GI50 ([4]; read-out: EGFR WT/BaF3 GI50) was 2840 nM and the “HER2 WT/BaF 3 Imax %” value [5] was 100%. The GI50 ([5]; read-out: HER2 WT/Ba F3 GI50) was 9.3 nM, the “HER2 A775_G77 6 ins YVMA/Ba F3 Imax %” value [6] was 100% and the GI50 [6] was 10.3 nM.

For `Cc1cc(Nc2ncnc3ccc(NC4=NC(C)(C)CO4)cc23)ccc1Oc1ccn2ncnc2c1` [Tucatinib, reference compound], the “HER2 A775_G77 6 ins YVMA/Ba F3 Imax %” value [6] was 100% and the GI50 ([6]; Mus musculus, BaF3) was 309 nM.
